Test results as given in patent publication US10155936B2, “Parkin ligase activation methods and compositions” (An2H Discovery Limited, priority 2014, dated 2018).

Key:
Parkin ligase [1] = target: T1, Parkin ligase (Homo sapiens, UniProt O60260); assay: Activity-based probe assay using a ubiquitin vinyl sulfone probe (TR-FRET); assay type: biochemical; details: heat activated Parkin, HA-Ub-VS probe, TR-FRET signal; FIG. 1, FIG. 2
T1 construct: Enzyme: Parkin-His tagged 203 μM (10.5 mg/ml)
T1 sequence (O60260 1-465): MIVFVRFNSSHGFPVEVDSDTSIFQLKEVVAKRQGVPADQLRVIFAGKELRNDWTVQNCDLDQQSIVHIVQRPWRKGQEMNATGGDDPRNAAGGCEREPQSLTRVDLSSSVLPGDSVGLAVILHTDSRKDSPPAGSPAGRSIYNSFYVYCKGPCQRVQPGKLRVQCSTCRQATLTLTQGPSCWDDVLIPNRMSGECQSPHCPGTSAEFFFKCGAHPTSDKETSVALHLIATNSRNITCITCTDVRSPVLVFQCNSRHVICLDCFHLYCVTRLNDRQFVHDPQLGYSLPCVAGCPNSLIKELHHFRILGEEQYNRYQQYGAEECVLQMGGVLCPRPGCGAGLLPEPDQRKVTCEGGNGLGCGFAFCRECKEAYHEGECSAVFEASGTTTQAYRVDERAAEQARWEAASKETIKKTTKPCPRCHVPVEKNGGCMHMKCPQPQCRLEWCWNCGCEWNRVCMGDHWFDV
Protocol: A Ubiquitin vinyl sulfone probe can be used that irreversibly binds to the active site cysteine of Parkin ligase. Covalent attachment of the probe to the Parkin can be monitored by TR-FRET. Candidate activator compounds can be identified by increasing the activity of Parkin ligase due to an increase in TR-FRET signal. Screening for activating compounds can be distinguished from the controls as follows: • 100% activation signal=Heat activated Parkin+100 nM control activator in DMSO. 0% activation signal=Heat activated Parkin+DMSO only. Parkin activators can be identified by an increase of the 0% activation signal TR-FRET signal. […]
(§1) Data Analysis: The Data can be read in CSV files. […]

Parkin ligase [2] = target: T1, Parkin ligase; assay: Tandem mass spectrometry of Parkin ligase incubated with compound, after proteolytic digestion; assay type: binding; details: tandem mass spectrometry of proteolytic fragments
Protocol: Parkin ligase was incubated with AH007 compound, and the mixture was then subject to tandem mass spectometry analysis after proteolytic digestion to produce fragments of Parkin ligase. […] Compound An2H07 is also fragmented when analyzed by mass spectrometry. Therefore, characteristic pieces of the compound AH007 that are attached to specific residues of Parkin can also be identified. These fragments were characterized for alterations in fragment size indicative of bound small molecule of the predicted molecular weight of AH007. The mass spectrometry data identified three specific fragments of AH007 at two specific residues of Parkin ligase. The data identified a fragment of 253.08-256.09 of AH007 compound attached to cysteine residue 377 of Parkin ligase (C377) and a fragment of 343.14-346.14 of AH007 compound attached to C377. The data also identified a fragment of 253.08-256.09 of AH007 compound attached to cysteine residue 59 of Parkin ligase (C59). […] It is also believed that at least C377 is included in ZnF domains of human Parkin Ligase, and thus accords with the theory that cysteine residues in the flexible Parkin ligase ZnF domains are vulnerable for attachment and/or interruption by small molecule candidates. Peptide fragments of Parkin comprising C59 and/or C377 will be useful to design further binding assays and selection of additional modulating agents.

Parkin ligase [3] = target: T2, Parkin ligase (Homo sapiens, UniProt O60260); assay: Parkin pUB auto-ubiquitinylation assay (TR-FRET); assay type: biochemical; details: for Parkin activity in an auto-ubiquitination assay: pUb activated Parkin, E1-E2 cascade, TR-FRET signal, FIG. 3, FIG. 5
T2 construct: Enzyme 3: Parkin-His tagged 203 μM (10.5 mg/ml) Supplied by An2H
Text: A Parkin pUB Auto-ubiquitinylation Assay is used to evaluate a candidate compound's potency to activate Parkin's ability to Auto-ubiquitinylate itself.
The principle of this assay is that the E3 Ligase Parkin catalyzes the transfer of Ubiquitin to target proteins, but also has the ability to auto-ubiquitinylate itself. The phospho-Ubiquition (pUb) added to the assay alters the Parkin to a state where small molecule activators can enable the Parkin to auto-ubiquitinylate though the E1-E2 cascade reaction. The use of a Eu cryptate Ubiquition and anti 6His-d2 that binds to the His tagged Parkin will give a signal when the Eu cryptate Ubiquition is auto-ubiquitinylate onto the Parkin which can be monitored by TR-FRET.
Similar to the Activity-based probe assay in Examples 2 and 3, screening for activating compounds can be distinguished from the controls as follows: • 100% activation signal=pUb activated Parkin+40 nM control activator in DMSO. • 0% activation signal=pUb activated Parkin+DMSO only. • Parkin activators can be identified by an increase of the 0% activation signal TR-FRET signal. […]
Assay Procedure: • 1) Load assay plate wells with 4.9 μl 400.0 nM Parkin, 800 nM pUb in reaction buffer by use of Bravo. • 2) Deliver 0.1 μl 100× activator candidates in DMSO by use of HP D-300 compound dispenser. […] Add each compound and control in duplicate wells. • 3) Spin 1000 rpm, 2 minutes, at room temp. • 4) Incubate plate for 15 minutes at room temp. • 5) Add 5 μl 10 nM E1, 100 nM E2, 17.6 nM Ubiquitin Eu and 2 mM ATP in Reaction Buffer by use of Bravo. • 6) Spin 1000 rpm, 2 minutes, at room temp. • 7) Incubate plate for 120 minutes at room temp. • 8) Add 10 μl 13.4 nM anti his d2 in detection buffer by use of Bravo. • 9) Spin 1000 rpm, 2 minutes, at room temp. • 10) Incubate plate for 60 minutes at room temp. • 11) Read plates on Perkin Elmer Envision instrument.
as §1

Row | Parkin Ligase reaction with the Activity-based Ubiquitin vinyl sulfone probe (Parkin ligase [1]) | Parkin activity in an auto-ubiquitination assay (Parkin ligase [3]) | SMILES | binding residues of Parkin ligase for the compound (Parkin ligase [2]) | parkin activation in an auto-ubiquitination assay, compound with pUB (Parkin ligase [3]; compound together with pUB, FIGS. 4A and 4B)
1 | increases the Parkin Ligase reaction | increases Parkin activity | Cc1nc2c(-c3ccccc3)c(C)nn2c(S)c1Cc1ccccc1 [AH007, 6-benzyl-2,5-dimethyl-3-phenylpyrazolo[1,5-a]pyrimidine-7-thiol] | binds and/or attaches to two specific sites in Parkin ligase: C59 and C377 | 
2 | increases the Parkin Ligase reaction | increases Parkin activity | O=C(Nc1nc(NC(=O)c2ccccc2)n(-c2ccccc2)n1)c1ccccc1 [AH001, N,N′-(1-phenyl-1H-1,2,4-triazole-3,5-diyl)dibenzamide] |  | synergistically increases parkin activation
